PMC6930223 (Scientific Reports, 2019)

Tests used:
[1] = target: hERG1a/1b current (Homo sapiens, UniProt Q12809)
Method: All working solutions were sterile-filtered, stored at −20 °C and thawed to room temperature before use.
Prior to electrophysiology study, the HEK293-hERG1a/1b cells were first grown in complete medium without selection antibiotics for 6 days. Approximately 5.0 × 10^5 cells were then plated onto an uncoated 96-mm cell culture dish for a maximum of 3 days. […] The cell suspension was then transferred into a 15-ml polypropylene tube and centrifuged at 100 × g for 3 min. Subsequently, the cell pellet was resuspended in extracellular solution to obtain a final density of 2 × 10^6–3 × 10^6 cells/ml and incubated on ice for 20 min to allow cell recovery. The electrophysiology studies were performed using NPC®-1 chips (Nanion Technologies, Germany) and Port-a-Patch system (Nanion Technologies, Germany) following manufacturer’s instructions, within the next 2 h. For characterization and determination of the hERG1a/1b current inhibition, a series of voltage protocols were applied as published previously.
The hERG1a/1b current was recorded in cells achieving whole-cell configuration. Briefly, a single cell was first held at −80 mV, the theoretical cardiac resting membrane potential, on the aperture of the NPC-1 chip (Nanion Technologies, Germany). To characterize the I-V relationship, the cell was depolarized to test potentials ranging from −60 mV to +50 mV for 4 s in […], followed by a 5-s step to −50 mV before returning to −80mV.
To determine the pharmacological effects of the HEK293-hERG1a/1b cells, the cells were perfused with test compound solutions using an external perfusion system. […] The mean of six successive Itail was recorded for each test concentration. Four independent experiments were conducted to derive the dose-response curve.

[2] = tested on: hERG1a; experiment: Immunofluorescence surface expression (CTCF/area) in HEK293-hERG1a/1b cells; type: cell-based, human; conditions: 10 µM, 24 h, control 0.1% (v/v) DMSO
Method: (§1) Briefly, cells were first seeded onto 24 mm × 24 mm pre-coated glass cover slips (Leica Microsystems, Germany) in a 6 well plate containing 10% (v/v) FBS-complete DMEM medium. The sterile glass cover slips (Leica Microsystems, Germany) were coated with HistoGrip (Invitrogen, USA) before use. Cells were first cultured in fresh medium containing 0.5% (v/v) FBS for 4 h before replenishing with medium containing arsenic trioxide (positive control) or mitragynine for 24 h. Medium containing 0.1% (v/v) DMSO was used as control. After incubation, the monolayer cells were fixed with 4% (w/v) paraformaldehyde and incubated for 15 min at room temperature, followed by rinsing with PBST solution and incubating with 0.1% (v/v) Triton X-100 solution for 2 min. Subsequently blocking was performed with 3% (w/v) BSA for 1 h and followed by incubation with primary antibodies against hERG1a (1:1000) and hERG1b (1:125) at 4 °C overnight. Immunolabelling was carried out using anti-rabbit IgG F(ab’)2 Alexa Fluor® 488 molecular probes (Cell Signaling, USA) diluted at 1:250 in 3% (w/v) BSA at room temperature. Finally, the cover slips were mounted using Fluoroshield™ with DAPI (Sigma-Aldrich, USA) and viewed under 600x magnification using Nikon C2 confocal microscope (Nikon, USA). The excitation/emission wavelengths for Alexa Fluor 488 and DAPI were 488/512 nm and 405/488 nm respectively. The laser imaging settings such as laser power, gain and amplification factor were set to be similar for all samples. […] For each test sample, at least 20 cells were randomly selected from the 15 spots for quantitation. The green fluorescence intensity was quantified using ImageJ software (http://imagej.nih.gov/ij/)[72],[73]. Intensity was represented as the “corrected total cell fluorescence” (CTCF) per area using the equation “CTCF/area = [Integrated density - (Area of selected cell × Mean fluorescence of background readings)]/Area of selected cell”. Relative protein expression of hERG1a and hERG1b was determined by dividing the mean CTCF/area of treated cells to that of the untreated control. […]

[3] = tested on: hERG1b; experiment: as above; type: cell-based, human; conditions: 24 h
Method: as §1

[4] = tested on: Hsp70; experiment: Western blot of endogenous chaperone expression in HEK-hERG1a/1b cells; type: cell-based, human; conditions: exposure for 24 h
Method: (§2) Total protein was isolated using RIPA lysis buffer system (Santa Cruz Biotechnology, Inc., USA). Equal amounts of protein samples were loaded onto 7.5% (v/v) polyacrylamide gels and were subsequently transferred to Immobilon®-P PVDF membrane (Millipore, USA) using Trans-Blot® Turbo™ Blotting System (Bio-Rad Laboratories, USA). Blots were blocked with 3% (w/v) skim milk for 1 h and probed with optimized primary antibodies against hERG1a (1:5000), hERG1b (1:1250), Hsp70 (1:10, 000), Hsp90 (1:5000) and β-actin (1:5000) overnight at 4 °C. Finally, the blots were then incubated in horseradish peroxidase (HRP) conjugated secondary antibody (1:1000) for 2.5 h followed by Clarity™ Western ECL substrate (Bio-Rad Laboratories, USA). The antibodies used for Western blotting were rabbit hERG1a polyclonal antibody (Enzo Life Sciences, USA), rabbit hERG1b polyclonal antibody (Enzo Life Sciences, USA), rabbit Hsc70/Hsp70 polyclonal antibody (Enzo Life Sciences, USA), rabbit Hsp90 polyclonal antibody (Enzo Life Sciences, USA), rabbit β-actin antibody (Cell Signaling, USA) and anti-rabbit IgG HRP-linked antibody (Cell Signaling, USA). Chemiluminescence signal was detected using ChemiDoc™ XRS Imaging System (Bio-Rad Laboratories, USA). Band densities were scanned and quantified using Image Lab Software (Bio-Rad Laboratories, USA). […]

[5] = tested on: Hsp90; experiment: as above; type: cell-based, human; conditions: exposure for 24 h
Method: as §2

[6] = tested on: rapidly delayed rectifier potassium current (IKr) in hiPSC-CMs; set-up: method as in PMID 25535742; conditions: cited from earlier work
[7] = tested on: hERG1a; set-up: method as in PMID 27260674; conditions: read-out: IC50 in hERG1a-injected Xenopus oocytes; cited from earlier work
[8] = tested on: GIRK (G protein-coupled inward rectifier potassium) channels; set-up: method as in PMID 27260674; conditions: heterologous expression systems; cited from earlier work
[9] = tested on: CYP2D6; conditions: cited from earlier work
[10] = tested on: CYP1A2; set-up: method as in PMID 24174816, PMID 23274770; conditions: cited from earlier work

In the case of mitragynine, the “Hill coefficient (h)” value ([1]; dose-response fit of hERG1a/1b tail current inhibition) is reported as 0.61, the IC50 ([1]; read-out: IC50 of hERG1a/1b current inhibition, peak tail current, step pulse protocol, HEK293-hERG1a/1b cells, four independent experiments) is reported as 333 nM and the “hERG1a fluorescence intensity vs control” value [2] is reported as “significant reduction to approximately half of the intensity”. For the same substance, the hERG1b fluorescence intensity ([3]; 1 µM) was “unaffected”, the hERG1b fluorescence intensity ([3]; 10 μM) was “unaffected” and the Hsp70 levels [4] was “neither Hsp70 nor Hsp90 levels were significantly altered”. For the same substance, the Hsp90 levels [5] was “neither Hsp70 nor Hsp90 levels were significantly altered”, the “action potential duration at 50 and 90% repolarization (APD50 and APD90)” value ([6]; 10 µM, hiPSC-CMs) was “significantly prolonged” and the IC50 ([6]; read-out: IC50 of IKr suppression in hiPSC-CMs) was 910 nM. For the same substance, the IC50 [7] was 1030 nM, the “effect on GIRK channels” value [8] was “inhibit” and the “effect on CYP2D6” value [9] was “potent inhibitory activity”. The “effect on CYP1A2 (induction)” value [10] was “inductive effect”.
